Results as given in patent US8741843B2, “Compositions and methods for inducing angiogenesis” (priority 2006, dated 2014).
Entries after “also recorded” stand apart in the source; their conditions may differ.

What was measured:
endothelial cells = test: Hypoxia-induced apoptosis of endothelial cells (Annexin V FITC/PI FACS); format: cell-based, human; conditions: for effect on hypoxia-induced apoptosis of endothelial cells / percent apoptosis (PI/Annexin V): 24 hours hypoxia; for effect on hypoxia-induced apoptosis of endothelial cells: peptides 10 ng/ml; for percent apoptosis (PI/Annexin V): FIGS. 24a-d, hypoxia alone 79.3%
Method: FIG. 17 is a histogram depicting the effect of ADOPep1 on hypoxia-induced apoptosis of endothelial cells. Endothelial cells were exposed for 24 hours hypoxia in the presence of endothelial cell growth medium supplemented with 5% fetal calf serum (FCS), followed by incubation under hypoxia conditions with ADOPep1 (10 ng/ml) or anti-GRP78 antibody (100 ng/ml). Cells (100,000/tube) were incubated with Annexin-V FITC/PI for endothelial cell apoptosis determination. […] Similarly, anti-GRP78 antibody induced a reduction in apoptosis up to 32%.
FIGS. 24a-d are FACS analyses depicting hypoxia induced apoptosis. Endothelial cells were incubated for 24 hours under hypoxia conditions in the absence (FIG. 24a) or presence of 10 ng/ml of ADOPepe1 (FIG. 24b), peptide of Motif A (FIG. 24c) or peptide of motif C (FIG. 24d) and the level of apoptosis was determined using FACS analysis and the PI (shown on the Y axis)/Annexin V (shown on the X axis) markers.
FIG. 25 is a bar graph depicting the inhibition of hypoxia induced apoptosis by ADOPep 1, Motif A and Motif B. Endothelial cells were incubated for 24 hours under hypoxia conditions in the absence or presence of 10 ng/ml of ADOPepe1, Motif A, Motif B or motif C and the level of apoptosis was determined using FACS analysis and quantified as the percent of Annexin V and PI positive cells. The results represent average±standard deviation of 4 independent experiments.
FIGS. 33a-f are representative FACS analyses depicting a specific inhibition of hypoxia-induced apoptosis of endothelial cells by ADOPep1. Endothelial cells in Petri dishes were incubated for 24 hours with 5% FCS in supplement-free endothelial cell growth medium under normoxia (FIGS. 33a and d), exposed to 24 hours hypoxia (Figures c and f) or incubated under normoxia with 100 micromolar per 100,000 cells CoCl2 (FIGS. 33b and e), in the absence (FIGS. 33a-c) or presence (FIGS. 33d-f) of 10 ng/ml Adopep1 peptide (for 24 hours). Cells were trypsinized and immediately re-suspended in PBS with 5% FCS and 0.1% Na-azide. Samples containing 100,000 cells were tested for apoptosis using the Annexin-FITC (X axis) and propidium iodide (Y axis) kit (Bender Medsystems, Vienna, Austria), according to manufacturer's instructions. Results were analyzed by FACScan (Beckton Dickinson).
EC were incubated for 24 hours with 5% FCS in EC growth media in Petri dishes plates followed by 24 hours incubation under hypoxia conditions with ADOPep1 (10 ng/ml), anti GRP78 antibody (Santa Cruz Biotechnology, Calif., USA) (1 microgram/ml) or recombinant VEGF (10 ng/ml). The Annexin V FITC/PI detects the phosphatidylserin on the apoptotic cells using flow cytometry. Human Annexin V-FITC kit (Bender Medsystems, Vienna, Austria) was used for the measurement of EC apoptosis percentage following manufacturer's instructions. Samples were analyzed using a fluorescence activated cell sorter (FACScan Beckton Dickinson, Calif., USA).

[1] = tested on: GRP78 receptor on endothelial cells; test: Competitive binding of ADOPeps to GRP78 (anti-GRP78 antibody ELISA on endothelial cells); design: species or system human; conditions: summary of 4 experiments
Method: FIG. 19 is a graph depicting inhibition of binding (in percentages) of anti-GRP78 antibody to endothelial cells by increasing concentrations of ADOPep1, 2, and 3 peptides. Endothelial cells were incubated for 2 hours with increasing concentrations of ADOPeps, following which the cells were incubated for another 1 hour with the 2 μg/ml of anti-GRP78 antibody and the amount of bound antibody on EC was detected using an ELISA reader.
Endothelial cells (20,000 per well) were seeded in 96 well plates for 24 hours in the presence of the complete medium. Plates were washed with PBS over night and rehydrated with PBS, 0.1% Na Azide and 5% FCS. ADOPep1, ADOPep2 and ADOPep3 were added to washed plates for 2 hours at room temperature at concentrations of 0.01, 0.1 and 1 microgram per ml. Anti-GRP78 antibody (goat polyclona IgG, Santa Cruz Biotechnology, Calif., USA) was added to the plates for 1 hour at room temperature at a concentration of 2 micrograms/ml per well. After washing, bound anti-GRP78 antibody was detected by incubation with anti-goat IgG Peroxidase conjugated (Jackson Immuneresearch Laboratories, PA, USA). After 5 washes with PBS-0.1% Tween 20, 100 μl/well of TMB+ Substrate-Chromogen (DAKOCytomation, CA, USA) was added for a maximum of 30 minutes. Reaction was stopped with 1N HCl. Color developed was determined by an ELISA reader at 450 nm.

[2] = molecular target: T1, GRP78 on endothelial cells (Homo sapiens, UniProt P11021); test: FACS competition of peptides with GRP78 polyclonal antibody on endothelial cells under hypoxia; format: binding; conditions: hypoxic conditions; for inhibition of anti GRP78 binding to endothelial cells: ten micrograms of peptide
T1 construct: endogenous in cells; host or cells: HUVEC / endothelial cells from umbilical cords, under normoxia or hypoxia
Method: Endothelial cells were cultured for 24 hours under hypoxic conditions in endothelial cell growth medium. Cells were removed by trypsin and incubated for 1 hour on ice with increasing concentrations of AdoPep1, Motif A and Motif C peptides. GRP78 polyclonal antibody (2 μg/100,000) was added to the cells for 2 hours on ice. Anti-goat FITC (Jackson ImmunoResearch) was added for 30 minutes on ice. IgG1-FITC was used as the isotype control. The samples were analyzed with a FACScan (Beckton Dickinson). […] FIG. 28d depicts the average percent binding of GRP78 to endothelial cells as a function of peptide amount as determined by 2 independent experiments.

GRP78 = GRP78 (Homo sapiens, UniProt P11021); test: GRP78 receptor internalization in endothelial cells under hypoxia; format: cell-based; design: endogenous in cells; host or cells: HUVEC / endothelial cells from umbilical cords, under normoxia or hypoxia; conditions: 10 ng/ml, after 5 minutes of incubation
Method: FIG. 29 is a graph depicting GRP78 receptor internalization response to ADOPep1 binding under hypoxic conditions. Endothelial cells were incubated under starvation conditions and hypoxia over night. Cells were incubated with 10 ng/ml ADoPep1 for 5, 15, 30 and 60 minutes. For membrane staining biotinylated AdoePep1 at 5 micrograms was added to intact cells for 1 hour and replaced by streptavidin FITC. For intracellular staining, cells were fixed with 1% paraformaldehyde followed by 15 minutes incubation with 0.1% saponin. After washing of cells, biotinylated AdoPep was added to the cells. The samples were analyzed with a FACScan (Beckton Dickinson). Membrane staining is shown by the blue bars (results are expressed in percentages, as normalized to untreated cells); Mean intracellular staining is shown by the purple bars (results are expressed in mean fluorescence);

T1 sequence (P11021 19-654): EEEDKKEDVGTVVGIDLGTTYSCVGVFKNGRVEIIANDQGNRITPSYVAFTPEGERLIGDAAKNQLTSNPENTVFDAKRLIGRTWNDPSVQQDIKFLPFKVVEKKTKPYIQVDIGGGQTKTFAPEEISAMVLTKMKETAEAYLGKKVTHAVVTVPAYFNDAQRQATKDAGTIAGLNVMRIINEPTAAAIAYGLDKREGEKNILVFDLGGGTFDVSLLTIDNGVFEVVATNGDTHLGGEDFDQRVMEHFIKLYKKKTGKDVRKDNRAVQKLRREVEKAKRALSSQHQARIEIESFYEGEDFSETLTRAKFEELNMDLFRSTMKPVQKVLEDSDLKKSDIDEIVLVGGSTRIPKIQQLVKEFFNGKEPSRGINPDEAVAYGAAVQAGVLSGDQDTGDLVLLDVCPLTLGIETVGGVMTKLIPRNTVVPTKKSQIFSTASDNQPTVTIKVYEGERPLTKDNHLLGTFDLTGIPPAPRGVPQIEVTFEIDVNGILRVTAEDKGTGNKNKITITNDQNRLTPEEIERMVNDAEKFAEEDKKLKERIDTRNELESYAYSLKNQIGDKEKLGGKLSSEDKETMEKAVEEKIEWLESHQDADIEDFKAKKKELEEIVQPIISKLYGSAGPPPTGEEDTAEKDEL
Chain of GRP78 (P11021 19-654): as above

| inhibition of anti GRP78 binding to endothelial cells [2] | GRP78 receptor internalization (GRP78) | Substance | effect on hypoxia-induced apoptosis of endothelial cells (endothelial cells) | more efficient in decreasing apoptosis as compared to the anti-GRP78 antibody (endothelial cells; FIG. 17, hypoxia) [%] | percent apoptosis of endothelial cells (Annexin-V/PI) (endothelial cells; FIG. 17, hypoxia, ADOPep1 10 ng/ml, anti-GRP78 antibody 100 ng/ml) [%] | inhibition of hypoxia induced apoptosis (endothelial cells; FIG. 34, 24 hours hypoxia, 10 ng/ml) | percent apoptosis (PI/Annexin V) (endothelial cells; 10 ng/ml) [%] | inhibition of binding of anti-GRP78 antibody to EC (in words) [1] | inhibition of anti GRP78 binding to endothelial cells (in words) [2] |
| --- | --- | --- | --- | --- | --- | --- | --- | --- | --- |
| approximately 80% | induced GRP78 receptor internalization | HWRRAHLLPRLP [ADOPep1, ADAM15 derived peptide, amino acids 286-297 of the metalloprotease domain] | prevented apoptosis to levels which are similar to those seen under normoxic conditions; also recorded: capable of inhibiting the hypoxia induced apoptosis; also recorded: remarkable decrease in the stained cells; also recorded: significant inhibition of hypoxia induced apoptosis; also recorded: a significant fraction of hypoxia-induced apoptosis was inhibited | 29 | 25 | approximately 40% | 28.6 | some degree of inhibition | inhibit the binding of GRP78 to endothelial cells |
| ~60% | – | HWRRP [Motif A, 5 amino acid motif peptide] | capable of inhibiting the hypoxia induced apoptosis; also recorded: significant inhibition of hypoxia induced apoptosis | – | – | – | 35.8 | – | inhibit the binding of GRP78 to endothelial cells |
